Assay results reported in ChEMBL document CHEMBL1124095, “Resolution of the nonsteroidal antiandrogen 4'-cyano-3-[(4-fluorophenyl)sulfonyl]-2-hydroxy-2-methyl-3'- (trifluoromethyl)-propionanilide and the determination of the absolute configuration of the active enantiomer” (1988).

Species on record: Rattus norvegicus
Assay: Antiandrogen activity in male rats
Format: functional

SMILES | ED50 [mg/kg]
C[C@@](O)(CSc1ccc(F)cc1)C(=O)Nc1ccc(C#N)c(C(F)(F)F)c1 | 30
CC(O)(CSc1ccc(F)cc1)C(=O)Nc1ccc(C#N)c(C(F)(F)F)c1 (stereo unspecified) | 0.5
C[C@](O)(CSc1ccc(F)cc1)C(=O)Nc1ccc(C#N)c(C(F)(F)F)c1 | 0.5
C[C@](O)(CS(=O)(=O)c1ccc(F)cc1)C(=O)Nc1ccc(C#N)c(C(F)(F)F)c1 [(R)-BICALUTAMIDE] | 0.5
C[C@@](O)(CS(=O)(=O)c1ccc(F)cc1)C(=O)Nc1ccc(C#N)c(C(F)(F)F)c1 [(S)-BICALUTAMIDE] | 30
CC(O)(CS(=O)(=O)c1ccc(F)cc1)C(=O)Nc1ccc(C#N)c(C(F)(F)F)c1 (stereo unspecified) [BICALUTAMIDE] | 0.5
